Results reported in patent US20110038920A1, “WOUND HEALING COMPOSITIONS AND TREATMENTS” (priority 2008, published 2011).
Counter-ions that a name gives are not always drawn.

Experiments:
[1] = test system: OPN expression in Swiss 3T3 fibroblasts; assay: Induction of OPN expression in fibroblasts by growth factors/cytokines (Western blot); format: cell-based; conditions: for ability to upregulate OPN expression in Swiss 3T3s: 8 h, PDGF-BB 20, EGF 100, TGFβ1 10, TGFβ3 10, IL-6 50, TNFα 10 ng/ml
Experimental: (§1) Protein samples (20 μg; collected in T-PER® Reagent; PIERCE Biotechnology) were separated on Tris-Glycine Gels (Invitrogen), transferred to PVDF, and blotted according to standard protocols (antibody details are provided above).
(§2) Swiss 3T3, J774.1 macrophages, and RBL mast cells were cultured in DMEM+10% fetal calf serum. Primary neutrophils were harvested by peritoneal lavage 4 h post-thioglycollate-induced peritonitis, and primary macrophages were derived from mouse bone marrow and activated with LPS (500 ng/ml).

[2] = test system: OPN expression in Swiss 3T3 fibroblasts exposed to macrophage CM; assay: Macrophage-CM induction of OPN in fibroblasts with inhibitors (Western blot); format: cell-based; conditions: co-treatment; Gleevec 2-20 μM, PDGF-Rβ nAb 2 μg/ml, wortmannin 100 nM
Experimental: as §1, §2

[3] = test system: pulmonary and dermal fibrosis; conditions: Distler et al. 2007; Aono et al. 2005; cited from earlier work
chronic ulcers = conditions: cited from earlier work
Mouse OPN mRNA = assay: AS ODN cleavage of OPN mRNA in vitro (RNase H); format: biochemical; conditions: ODN final concentration 2 μM, 20 min at 37° C., compared among the AS ODNs
Experimental: Dz cleavage of OPN mRNA in vitro: Mouse OPN mRNA was transcribed from the IMAGE clone (GenBank, BC057858; (Geneservice Ltd), and resulting RNA was purified with RNeasy MinElute Cleanup Kit (Qiagen). RNA (0.3 μg/5 μl) was incubated in the cleavage buffer (10 mM MgCl2, 5 mM Tris (pH 7.5), 150 mM NaCl) for 5 min at 37° C., as was 5 μl of Dzs (40 μM; MWG Biotech). These were then combined and incubated for 1 h. RNA products were separated on 2% formaldehyde-agarose gel and stained with SYBR Gold nucleic acid gel stain (Invitrogen) to determine cleaving efficiency (FIG. 6 A).
AS ODN cleavage in vitro: To evaluate the cleaving efficiency of the AS ODNs, transcribed RNA (0.3 μg) was incubated with control or OPN AS ODNs (final concentration of 2 μM; MWG Biotech), RNase H (Invitrogen. Corp.), and RNasin (to inhibit non-specific RNA degradation; Promega) in a final volume 10 μl of cleavage buffer, and incubated for 20 min at 37° C. RNA products were separated on 2% formaldehyde-agarose gel and stained with SYBR Gold nucleic acid gel stain (Invitrogen Corp.) to determine cleaving efficiency (FIG. 6 B).

Question: For IL-6: cytokine, BioSource, which “ability to upregulate OPN expression in Swiss 3T3s” value (shortened to “ability”) [1] is on record?
Answer: not

Question: With “TGFβ1: growth factor/cytokine, BioVision” as the compound, how does the “ability” value [1] read?
Answer: not

Question: Which “OPN expression during fibroblast exposure to macrophage CM” value [2] does the source give for `Cc1ccc(NC(=O)c2ccc(CN3CCN(C)CC3)cc2)cc1Nc1nccc(-c2cccnc2)n1` [Gleevec, imatinib mesylate] here?
Answer: significantly reduced

Question: And the “pulmonary and dermal fibrosis” value [3]?
Answer: reduces pulmonary and dermal fibrosis

Question: Which “ability” value [1] does the source give for “EGF: growth factor, R&D Systems (NSDSECPLSHDGYCLHDGVCMYIEALDKYACNCVVGYIGERCQYRDLKWWELR; Epidermal growth factor; UniProt P01133 971-1023, looked up)” here?
Answer: not

Question: Which “ability” value [1] does the source give for PDGF-BB: growth factor, R&D Systems here?
Answer: significantly upregulate

Question: And the “time of peak OPN levels after initial exposure” value ([1]; Swiss 3T3 fibroblasts, 20 ng/ml PDGF-BB)?
Answer: about 8 h

Question: What about the “minimum window of exposure required for OPN expression” value ([1]; Swiss 3T3 fibroblasts, 20 ng/ml PDGF-BB, analysed at 8 h) of the same compound?
Answer: ≥ 2 h

Question: What about the “granulation tissue and scarring” value (chronic ulcers; in vivo) of the same compound?
Answer: increased granulation tissue and scarring

Question: And the “healing of chronic ulcers” value (chronic ulcers; topical application to wounds (Chan et al. 2006))?
Answer: accelerate the healing

Question: Which “effectiveness at cleaving OPN mRNA” value (Mouse OPN mRNA) does the source give for “OPN AS ODN (943): osteopontin antisense oligodeoxynucleotide actatcgatcacatccg (SEQ.ID.NO: 164) (antisense ACTATCGATCACATCCG; DNA, backbone not given here)” here?
Answer: most effective
